This passage reports IC50 results from BindingDB's records for doi:10.1016/j.ejmech.2014.01.004 (Future University, 2014).

For this assay, the target named is T1, Dihydrofolate reductase (Bos taurus, UniProt P00376).
T1 sequence (P00376 whole entry): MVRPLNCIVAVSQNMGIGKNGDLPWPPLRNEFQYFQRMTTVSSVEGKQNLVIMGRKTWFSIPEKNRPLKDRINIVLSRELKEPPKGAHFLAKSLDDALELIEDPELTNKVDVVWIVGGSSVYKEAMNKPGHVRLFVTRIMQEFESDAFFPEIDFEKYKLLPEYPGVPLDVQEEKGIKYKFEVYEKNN
Description: Inhibition of bovine liver DHFR measured for every 1 min of 10 mins.

On to `Clc1cc2c(cc1Cl)N=C(c1ccc(Br)cc1)C1CCCC(=Cc3ccc(Br)cc3)C1=N2` (configuration not stated), for which the concentration for half-maximal inhibition (IC50) – broadly, the midpoint of a concentration-inhibition curve – was found to be 100 nM.

Regarding `COc1ccc(C=C2CCCC3C2=Nc2cc(C)c(C)cc2N=C3c2ccc(OC)cc2)cc1` (configuration not stated), the IC50 came to 100 nM.
